# US20230123334A1, “AMINO LIPID COMPOUND, PREPARATION METHOD THEREFOR, AND APPLICATION THEREOF” (SHENZHEN SHENXIN BIOTECHNOLOGY CO., LTD., priority 2020, published 2023)
# Test system: HEK293 cells
# Test: Preliminary screening as DNA vectors, GFP transfection of HEK293 cells
# Assay type: cell-based
# Conditions: amino lipid/DOPE liposome with 75 ng plasmid DNA (psin-EGFP-IRES-Puro); number of GFP-expressing cells divided by total nuclei (Hoechst)
# Method in brief: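 Lipid + DOPE liposomes (NaOAc, pH 5.6) complexed w/ 75 ng psin-EGFP-IRES-Puro, 30 min RT; added to 3-5×10^4 HEK293/well, 37° C. Hoechst 0.2 μg/mL at 20-24 h, imaged after further 20-24 h. Efficiency = GFP+ cells / total nuclei.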
row,SMILES,Absolute DNA transfection efficiency in HEK293 cells [%]
1,CCCCCCCCCCCCCCCSc1nc(NCCCCCCCCCCC)nc(NCCCN(C)C)n1 [S15N11 D6],12.9
2,CCCCCCCCCCCCCCCSc1nc(NCCCCCCCCCCC)nc(NCCN(CC)CC)n1 [S15N11 D7],9.3
3,CCCCCCCCCCCCCCCSc1nc(NCCCCCCCCCCC)nc(NCCCN2CCOCC2)n1 [S15N11 D8],6.1
4,CCCCCCCCCCCCCCCSc1nc(NCCCCCCCCCCC)nc(NCCCN2CCN(C)CC2)n1 [S15N11 D9],11.9
5,CCCCCCCCCCCCCCCSc1nc(NCCCCCCCCCCC)nc(NCC2CCN(C)CC2)n1 [S15N11 D10],16.6
6,CCCCCCCCCCCCCCCSc1nc(NCCCCCCCCCCCC)nc(NCCN(C)C)n1 [S15N12 D1],4.9
7,CCCCCCCCCCCCCCCSc1nc(NCCCCCCCCCCCC)nc(NCCN2CCOCC2)n1 [S15N12 D2],0.0
8,CCCCCCCCCCCCCCCSc1nc(NCCCCCCCCCCCC)nc(NCCN2CCCC2)n1 [S15N12 D3],11.5
9,CCCCCCCCCCCCCCCSc1nc(NCCCCCCCCCCCC)nc(NCCN2CCCCC2)n1 [S15N12 D4],0.1
10,CCCCCCCCCCCCCCCSc1nc(NCCCCCCCCCCCC)nc(NCCN2CCN(C)CC2)n1 [S15N12 D5],5.7
11,CCCCCCCCCCCCCCCSc1nc(NCCCCCCCCCCCC)nc(NCCCN(C)C)n1 [S15N12 D6],6.4
12,CCCCCCCCCCCCCCCSc1nc(NCCCCCCCCCCCC)nc(NCCN(CC)CC)n1 [S15N12 D7],5.9
13,CCCCCCCCCCCCCCCSc1nc(NCCCCCCCCCCCC)nc(NCCCN2CCOCC2)n1 [S15N12 D8],1.5
14,CCCCCCCCCCCCCCCSc1nc(NCCCCCCCCCCCC)nc(NCCCN2CCN(C)CC2)n1 [S15N12 D9],3.3
15,CCCCCCCCCCCCCCCSc1nc(NCCCCCCCCCCCC)nc(NCC2CCN(C)CC2)n1 [S15N12 D10],4.3
16,CCCCCCCCCCCCCCCSc1nc(NCCCCCCCCCCCCC)nc(NCCN(C)C)n1 [S15N13 D1],0.4
17,CCCCCCCCCCCCCCCSc1nc(NCCCCCCCCCCCCC)nc(NCCN2CCOCC2)n1 [S15N13 D2],0.0
18,CCCCCCCCCCCCCCCSc1nc(NCCCCCCCCCCCCC)nc(NCCN2CCCC2)n1 [S15N13 D3],4.2
19,CCCCCCCCCCCCCCCSc1nc(NCCCCCCCCCCCCC)nc(NCCN2CCCCC2)n1 [S15N13 D4],0.0
20,CCCCCCCCCCCCCCCSc1nc(NCCCCCCCCCCCCC)nc(NCCN2CCN(C)CC2)n1 [S15N13 D5],1.9
21,CCCCCCCCCCCCCCCSc1nc(NCCCCCCCCCCCCC)nc(NCCCN(C)C)n1 [S15N13 D6],2.7
22,CCCCCCCCCCCCCCCSc1nc(NCCCCCCCCCCCCC)nc(NCCN(CC)CC)n1 [S15N13 D7],5.5

row,SMILES,Absolute DNA transfection efficiency in HEK293 cells [%]
1,CCCCCCCCCCCCCCCSc1nc(NCCCCCCCCCCCCC)nc(NCCCN2CCOCC2)n1 [S15N13 D8],0.2
2,CCCCCCCCCCCCCCCSc1nc(NCCCCCCCCCCCCC)nc(NCCCN2CCN(C)CC2)n1 [S15N13 D9],3.2
3,CCCCCCCCCCCCCCCSc1nc(NCCCCCCCCCCCCC)nc(NCC2CCN(C)CC2)n1 [S15N13 D10],0.0
4,CCCCCCCCCCCCCCCNc1nc(NCCN(C)C)nc(SCCCCCCCCCCCCCCC)n1 [S15N15 D1],0.6
5,CCCCCCCCCCCCCCCNc1nc(NCCN2CCOCC2)nc(SCCCCCCCCCCCCCCC)n1 [S15N15 D2],0.0
6,CCCCCCCCCCCCCCCNc1nc(NCCN2CCCC2)nc(SCCCCCCCCCCCCCCC)n1 [S15N15 D3],0.8
7,CCCCCCCCCCCCCCCNc1nc(NCCN2CCCCC2)nc(SCCCCCCCCCCCCCCC)n1 [S15N15 D4],0.5
8,CCCCCCCCCCCCCCCNc1nc(NCCN2CCN(C)CC2)nc(SCCCCCCCCCCCCCCC)n1 [S15N15 D5],0.4
9,CCCCCCCCCCCCCCCNc1nc(NCCCN(C)C)nc(SCCCCCCCCCCCCCCC)n1 [S15N15 D6],0.0
10,CCCCCCCCCCCCCCCNc1nc(NCCN(CC)CC)nc(SCCCCCCCCCCCCCCC)n1 [S15N15 D7],0.4
11,CCCCCCCCCCCCCCCNc1nc(NCCCN2CCOCC2)nc(SCCCCCCCCCCCCCCC)n1 [S15N15 D8],0.1
12,CCCCCCCCCCCCCCCNc1nc(NCCCN2CCN(C)CC2)nc(SCCCCCCCCCCCCCCC)n1 [S15N15 D9],0.5
13,CCCCCCCCCCCCCCCNc1nc(NCC2CCN(C)CC2)nc(SCCCCCCCCCCCCCCC)n1 [S15N15 D10],0.3
14,CCCCCCCCCCCCCCCCNc1nc(NCCN(C)C)nc(SCCCCCCCCCCCCCCC)n1 [S15N16 D1],1.3
15,CCCCCCCCCCCCCCCCNc1nc(NCCN2CCOCC2)nc(SCCCCCCCCCCCCCCC)n1 [S15N16 D2],0.0
16,CCCCCCCCCCCCCCCCNc1nc(NCCN2CCCC2)nc(SCCCCCCCCCCCCCCC)n1 [S15N16 D3],0.6
17,CCCCCCCCCCCCCCCCNc1nc(NCCN2CCCCC2)nc(SCCCCCCCCCCCCCCC)n1 [S15N16 D4],0.4
18,CCCCCCCCCCCCCCCCNc1nc(NCCN2CCN(C)CC2)nc(SCCCCCCCCCCCCCCC)n1 [S15N16 D5],0.2
19,CCCCCCCCCCCCCCCCNc1nc(NCCCN(C)C)nc(SCCCCCCCCCCCCCCC)n1 [S15N16 D6],0.0
20,CCCCCCCCCCCCCCCCNc1nc(NCCN(CC)CC)nc(SCCCCCCCCCCCCCCC)n1 [S15N16 D7],0.4
21,CCCCCCCCCCCCCCCCNc1nc(NCCCN2CCOCC2)nc(SCCCCCCCCCCCCCCC)n1 [S15N16 D8],0.0
22,CCCCCCCCCCCCCCCCNc1nc(NCCCN2CCN(C)CC2)nc(SCCCCCCCCCCCCCCC)n1 [S15N16 D9],0.2

row,SMILES,Absolute DNA transfection efficiency in HEK293 cells [%]
1,CCCCCCCCCCCCCCCCNc1nc(NCC2CCN(C)CC2)nc(SCCCCCCCCCCCCCCC)n1 [S15N16 D10],0.3
2,CCCCCCCCCCCCCCCCCCNc1nc(NCCN(C)C)nc(SCCCCCCCCCCCCCCC)n1 [S15N18 D1],0.6
3,CCCCCCCCCCCCCCCCCCNc1nc(NCCN2CCOCC2)nc(SCCCCCCCCCCCCCCC)n1 [S15N18 D2],0.0
4,CCCCCCCCCCCCCCCCCCNc1nc(NCCN2CCCC2)nc(SCCCCCCCCCCCCCCC)n1 [S15N18 D3],0.7
5,CCCCCCCCCCCCCCCCCCNc1nc(NCCN2CCCCC2)nc(SCCCCCCCCCCCCCCC)n1 [S15N18 D4],0.4
6,CCCCCCCCCCCCCCCCCCNc1nc(NCCN2CCN(C)CC2)nc(SCCCCCCCCCCCCCCC)n1 [S15N18 D5],0.3
7,CCCCCCCCCCCCCCCCCCNc1nc(NCCCN(C)C)nc(SCCCCCCCCCCCCCCC)n1 [S15N18 D6],0.3
8,CCCCCCCCCCCCCCCCCCNc1nc(NCCN(CC)CC)nc(SCCCCCCCCCCCCCCC)n1 [S15N18 D7],0.9
9,CCCCCCCCCCCCCCCCCCNc1nc(NCCCN2CCOCC2)nc(SCCCCCCCCCCCCCCC)n1 [S15N18 D8],0.3
10,CCCCCCCCCCCCCCCCCCNc1nc(NCCCN2CCN(C)CC2)nc(SCCCCCCCCCCCCCCC)n1 [S15N18 D9],0.4
11,CCCCCCCCCCCCCCCCCCNc1nc(NCC2CCN(C)CC2)nc(SCCCCCCCCCCCCCCC)n1 [S15N18 D10],1.2
12,CCCCCCCCCCCCCCCSc1nc(NCCN(C)C)nc(N(CCCCCCCCCCCC)CCCCCCCCCCCC)n1 [S15^2N12 D1],0.0
13,CCCCCCCCCCCCCCCSc1nc(NCCN2CCOCC2)nc(N(CCCCCCCCCCCC)CCCCCCCCCCCC)n1 [S15^2N12 D2],0.0
14,CCCCCCCCCCCCCCCSc1nc(NCCN2CCCC2)nc(N(CCCCCCCCCCCC)CCCCCCCCCCCC)n1 [S15^2N12 D3],0.1
15,CCCCCCCCCCCCCCCSc1nc(NCCN2CCCCC2)nc(N(CCCCCCCCCCCC)CCCCCCCCCCCC)n1 [S15^2N12 D4],0.0
16,CCCCCCCCCCCCCCCSc1nc(NCCN2CCN(C)CC2)nc(N(CCCCCCCCCCCC)CCCCCCCCCCCC)n1 [S15^2N12 D5],0.7
17,CCCCCCCCCCCCCCCSc1nc(NCCCN(C)C)nc(N(CCCCCCCCCCCC)CCCCCCCCCCCC)n1 [S15^2N12 D6],0.0
18,CCCCCCCCCCCCCCCSc1nc(NCCN(CC)CC)nc(N(CCCCCCCCCCCC)CCCCCCCCCCCC)n1 [S15^2N12 D7],0.2
19,CCCCCCCCCCCCCCCSc1nc(NCCCN2CCOCC2)nc(N(CCCCCCCCCCCC)CCCCCCCCCCCC)n1 [S15^2N12 D8],0.0
20,CCCCCCCCCCCCCCCSc1nc(NCCCN2CCN(C)CC2)nc(N(CCCCCCCCCCCC)CCCCCCCCCCCC)n1 [S15^2N12 D9],0.9
21,CCCCCCCCCCCCCCCSc1nc(NCC2CCN(C)CC2)nc(N(CCCCCCCCCCCC)CCCCCCCCCCCC)n1 [S15^2N12 D10],1.0
22,CCCCCCCCCCCCCCCCSc1nc(NCCCCCC)nc(NCCN(C)C)n1 [S16N6 D1],8.0
